The values that follow come from patent US12371459B2, “Antimicrobial peptide derived from Pseudin-2 peptide and uses thereof” (INDUSTRY-ACADEMIC COOPERATION FOUNDATION, CHOSUN UNIVERSITY, priority 2019, dated 2025).

Several values for one entry are separate records, joined by “and”; a condition that tells them apart may be missing. Identical values can stand only once. Ends that are not written are not given here. Where only a bound is given, the exact number is not on record here.

A short description of data set [1]: in vitro. The following applies: human, HaCaT keratinocyte cells. On the procedure:
(§1) To determine the cytotoxicity of the peptides produced by the method of Example 1 in normal cell line, cytotoxicity was measured by using human keratinocyte cell line (HaCaT cell line, Dr. N E. Fusenig, Heidelberg, Germany).
(§2) Specifically, HaCaT cells, which have been cultured in DMEM medium containing 10% FBS (fetal bovine serum), were aliquoted in a microtiter plate to have 2×10^5 cells per well. […] Twenty-four hours later, a reaction solution containing 0.5 mg/ml MTT (thiazolyl blue tetrazolium bromide) dissolved in phosphate buffered saline (PBS) was added in an amount of 100 μl to each well and the reaction was allowed to occur for 4 hours. After that, the supernatant was discarded, and, by dissolving MTT crystals that are formed by adding 200 μl DMSO (dimethyl sulfoxide), the absorbance at 560 nm was measured to determine the cell survival ability.

In data set [2] the test system is human keratinocyte cell line (HaCaT). The data set is described as follows: in vitro. The conditions noted are these: HaCaT keratinocyte cells, 24 h, 100 µM. On the procedure: as §1, §2
The subject of data set [3] is Staphylococcus aureus ATCC 25923. The conditions noted are these: ATCC 25923, 18 h. The source says: (§3) To compare the antimicrobial activity among the peptides produced by the method of Example 1, the inventors of the present invention measured the minimal growth inhibitory concentration (MIC), which is minimum concentration of the peptide not allowing any […] of bacterial cells.
(§4) Specifically, the bacterial strains described in the following Table 2 were purchased and cultured to a mid-log phase in a medium that is appropriate for each strain. […] After the addition to a plate, the cells were cultured for 18 hours at 37° C. […] As a control, Pseudin-2 as a mother peptide was used.

For data set [4], the system named is Escherichia coli CCARM 1238 (tolerance to antibiotics).
Excerpt: as §3, §4

The subject of data set [5] is Pseudomonas aeruginosa ATCC 27853. The following applies: ATCC 27853, 18 h.
Excerpt: as §3, §4

Data set [6] has as its system Salmonella typhimurium KCTC 1926. The conditions noted are these: KCTC 1926, 18 h.
Excerpt: as §3, §4

Data set [7] relates to Staphylococcus aureus CCARM 3090 (tolerance to antibiotics).
Excerpt: as §3, §4

In data set [8] the test system is Trichosporon beigelii KCTC 7707. The following applies: KCTC 7707, 18 h.
Excerpt: as §3, §4

The test system of data set [9] is Bacillus subtilis KCTC 1998. The following applies: KCTC 1998, 18 h.
Excerpt: as §3, §4

The subject of data set [10] is Candida albicans KCTC 7270. The conditions noted are these: KCTC 7270, 18 h.
Excerpt: as §3, §4

Data set [11] relates to Escherichia coli ATCC 25922. The conditions noted are these: ATCC 25922, 18 h.
Excerpt: as §3, §4

Data set [12] has as its system Pseudomonas aeruginosa isolated strain 4891 (tolerance to antibiotics).
Excerpt: as §3, §4

The test system of data set [13] is Pseudomonas aeruginosa isolated strain 4007 (tolerance to antibiotics).
Excerpt: as §3, §4

For data set [14], the system named is Listeria monocytogenes KCTC 3710. The following applies: KCTC 3710, 18 h.
Excerpt: as §3, §4

The test system of data set [15] is Escherichia coli CCARM 1229 (tolerance to antibiotics).
Excerpt: as §3, §4

Data set [16] relates to Staphylococcus aureus CCARM 3518 (tolerance to antibiotics).
Excerpt: as §3, §4

For data set [17], the system named is plasmid DNA (pRSETB). The data set is described as follows: Binding between antimicrobial peptide and DNA (agarose gel electrophoresis). The conditions noted are these: plasmid DNA 300 ng, peptide/DNA ratio 0.25:1 to 4:1, 10 minutes at 37° C. On the procedure: Specifically, plasmid DNA (pRSETB, 300 ng) and the peptide were reacted for at different ratio (i.e., peptide/DNA ratio was 0 (DNA only), 0.25:1, 0.5:1, 1:1, 1.5:1, 2:1, 3:1, or 4:1) for 10 minutes at 37° C. After that, electrophoresis was carried out using 1% agarose gel followed by staining with ethidium bromide (EtBr) and UV determination.

The subject of data set [18] is erythrocytes of a mouse (Balb/c). In words: Erythrocyte hemolytic activity. The following applies: 1 hour at 37° C. On the procedure: To compare the cytotoxicity among the peptides that are produced by the method of Example 1, erythrocyte hemolytic activity of the synthesized peptide was measured.
After that, the amount of hemoglobin contained in a supernatant collected by centrifuge at 1,000×g was determined by measuring the absorbance at a wavelength of 414 nm. As a control to be used as a reference for cell disruption level, the supernatant collected by a treatment with 1% Triton X-100 (Sigma, USA) and a reaction for 1 hour at 37° C. was used to measure the absorbance. By setting the resulting absorbance value at 100% of the erythrocyte hemolytic activity, hemolysis of each peptide was calculated using the following equation 1. Erythrocyte disrupting ability (%)=(Absorbance A−Absorbance B)/(Absorbance C−Absorbance B)×100 Equation 1 (in the above equation, Absorbance A indicates the absorbance of a reaction solution treated with each peptide, in which the absorbance is measured at a wavelength of 414 nm; Absorbance B indicates the absorbance of a reaction solution treated with PBS, in which the absorbance is measured at a wavelength of 414 nm; and Absorbance C indicates the absorbance of a reaction solution treated with 1% Triton X-100, in which the absorbance is measured at a wavelength of 414 nm).

In data set [19] the test system is P. aeruginosa 4007. The following applies: P. aeruginosa 4007, 24 hours at 37° C.
Data set [20] has as its system P. aeruginosa (ATCC 27853). The conditions noted are these: 24 hours at 37° C.
Data set [21] has as its system S. aureus (ATCC 25923). The following applies: 24 hours at 37° C.
The test system of data set [22] is S. aureus (CCARM 3518). The conditions noted are these: 24 hours at 37° C.
Data set [23] concerns E. coli (CCARM 1238). The conditions noted are these: 24 hours at 37° C.
Data set [24] has as its system S. aureus (CCARM 3090). The conditions noted are these: 24 hours at 37° C.
Data set [25] deals with E. coli (CCARM 1229). The conditions noted are these: 24 hours at 37° C.
Data set [26] relates to P. aeruginosa 4891. The following applies: P. aeruginosa 4891, 24 hours at 37° C.
The subject of data set [27] is E. coli (ATCC 25922). The conditions noted are these: 24 hours at 37° C.
Data set [28] relates to Escherichia coli. In words: Flow cytometry, propidium iodide, effect on bacteria membrane. Type of data set: cell-based. The conditions noted are these: peptide at MIC. Here is the method:
(§5) After that, the supernatant was removed by centrifuge (10,000 rpm) and stained with propidium iodide (PI, concentration of 10 μg/ml) for 30 minutes at 4° C. Thereafter, unbound propidium iodide was removed by centrifuge, and the problem of cell aggregation phenomenon was solved by adding physiological saline (PBS) in an amount of 1 ml.
(Flow cytometry measures light scatter and fluorescence of single cells or particles in a stream.)

Data set [29] concerns Staphylococcus aureus. The description is as above. Type of data set: cell-based. The following applies: peptide at MIC. Here is the method: as §5
The test system of data set [30] is Escherichia coli. The data set is described as follows: Scanning electron microscopy (SEM), membrane damage. Type of data set: cell-based. The conditions noted are these: peptide at MIC, 1 hour at 37° C. Here is the method: (§6) As a control, cells applied with no peptide were used. After the culture, the cells were collected, and, by using 2.5% glutaraldehyde, the bacterial cells were treated for 18 hour at 4° C. After carrying out washing two times with PBS buffer solution, the fixed cells were dehydrated in stepwise manner by using 100% ethanol and diluted ethanol (50%, 70%, 90% and 100%). After the dehydration followed by drying, the specimen was coated with platinum and determination was made by low vacuum scanning electron microscopy.

Data set [31] relates to Staphylococcus aureus. The description is as above. Format: cell-based. The following applies: peptide at MIC, 1 hour at 37° C. Here is the method: as §6

For orientation: viability means a read-out of living cells in per cent, often relative to untreated cells. “WLNALKKVWQGIHEAIKLIWNWVQ-NH2 [Pse-Anal4]” had a viability at 24 h, 3.13 µM in [1] (Cell survival ability) of 46.1%. In data set [1] (Cell survival ability), this molecule registered a viability at 24 h, 6.25 µM of 35.1%. In data set [1] (Cell survival ability), this molecule had a viability at 24 h, 12.5 µM of 25.4%. Also, the viability at 24 h, 25 µM in data set [1] (Cell survival ability) turned out to be 20.8%. For the same molecule, the viability at 24 h, 50 µM in [1] (Cell survival ability) worked out at 15.3%. This molecule also gave a viability at 24 h, 100 µM in [1] (Cell survival ability) of 10.1%. In data set [2], this molecule registered a Cell survival ability of 10.8%. Moreover, the Minimal inhibitory concentration in data set [3] is 32 µM; in data set [4], 32 µM; in data set [5], 16 µM; in data set [6], 16 µM; in data set [7], 32 µM; in data set [8], 32 µM. Also, the Minimal inhibitory concentration turned out to be 32 µM in data set [9]; 32 µM in data set [10]; 16 µM in data set [11]; 64 µM in data set [12]; 64 µM in [13]; 32 µM in [14]. In addition, the Minimal inhibitory concentration in [15] and in data set [16] was 32 µM in each case.
Consider “GLNALKKVFQGIHEAIKLINNHVQ-NH2 [Pseudin-2]”, for which the viability at 24 h, 3.13 µM in [1] came out at 100%. In data set [1], this molecule returned a viability at 24 h, 6.25 µM of 100%. Also, the viability at 24 h, 12.5 µM in [1] amounted to 100%. The viability at 24 h, 25 µM in data set [1] was 100%. The molecule further registered a viability at 24 h, 50 µM in data set [1] of 100%. Moreover, the viability at 24 h, 100 µM in data set [1] stood at 82.1%. The “Binding to DNA” value in data set [17] is listed as “did not show any binding to DNA”. In addition, the Erythrocyte disrupting ability in data set [18] (peptide concentration 3.13 μM) is 0%; in [18] (peptide concentration 6.25 μM), 0%; in data set [18] (peptide concentration 12.5 μM), 0%; in [18] (peptide concentration 25 μM), 0%; in data set [18] (peptide concentration 50 μM) it was 3.2%; in [18] (peptide concentration 100 μM), 10% and 10.1%.
Take `O=C(O)c1cn(C2CC2)c2cc(N3CCNCC3)c(F)cc2c1=O` [Ciprofloxacin]: the “Biofilm minimal inhibitory concentration” value is greater than 400 µM in data set [19]; 2 µM in data set [20]; 4 µM in [21]; greater than 400 µM in [22]; 128 µM in data set [23]; greater than 400 µM in [24]. The results for the “Biofilm minimal inhibitory concentration” value in data set [25], in data set [26] and in data set [27] were 128 µM, greater than 400 µM and 2 µM, respectively.
On to LNALKKVFQGIHEAIKLI-NH2 [Pse-T1], for which the “Membrane disrupting ability compared with Pseudin-2” value in [28] and in data set [29] was “higher membrane disrupting ability than Pseudin-2” each time. For the same molecule, the viability at 24 h, 3.13 µM in data set [1] was found to be 100%. Besides, the viability at 24 h, 6.25 µM in data set [1] came to 100%. The molecule further yielded a viability at 24 h, 12.5 µM in data set [1] of 100%. In [1], the viability at 24 h, 25 µM is 100%. This molecule also registered a viability at 24 h, 50 µM in data set [1] of 98.8%. In data set [1], this molecule displayed a viability at 24 h, 100 µM of 86.2%. In addition, the “Binding to DNA” value in data set [17] is listed as “showed binding to DNA”. Moreover, the Erythrocyte disrupting ability was found to be 0% in [18] (peptide concentration 3.13 μM); 0% in [18] (peptide concentration 6.25 μM); 0% in [18] (peptide concentration 12.5 μM); 0% in [18] (peptide concentration 25 μM); 3.9% in [18] (peptide concentration 50 μM); 12.3% in data set [18] (peptide concentration 100 μM).
As for LNALKKVFQGIHEAIKKI-NH2 [Pse-T3], the “Membrane disrupting ability compared with Pseudin-2” value in [28] and in data set [29] was “higher membrane disrupting ability than Pseudin-2” in each case. This molecule displayed a viability at 24 h, 3.13 µM in data set [1] of 100%. In addition, the viability at 24 h, 6.25 µM in data set [1] turned out to be 100%. For the same molecule, in data set [1], the viability at 24 h, 12.5 µM amounted to 100%. In addition, in data set [1], the viability at 24 h, 25 µM amounted to 100%. In addition, the viability at 24 h, 50 µM in [1] is 100%. This molecule returned a viability at 24 h, 100 µM in [1] of 90.3%. For the same molecule, the “Binding to DNA” value in data set [17] is recorded as “showed binding to DNA”. For the same molecule, the “Membrane damage by SEM” value in [30] was “rougher than the cells treated with Pseudin-2”; in data set [31], “higher damage and disruption of cell membrane”. Further, the Erythrocyte disrupting ability in data set [18] (peptide concentration 3.13 μM) stood at 0%; in [18] (peptide concentration 6.25 μM), 0%; in data set [18] (peptide concentration 12.5 μM), 0%; in data set [18] (peptide concentration 25 μM), 0.5%; in data set [18] (peptide concentration 50 μM), 2.2%; in data set [18] (peptide concentration 100 μM), 5.6%.
